Experimental data: a melting point compilation (Tetko et al.; mined from patent text by program, amines drawn as free bases though some values may be those of a salt)

With `Cn1nnnc1-c1cnc2cc(Cl)c(F)cc2c1O` as the molecule, how does the melting point read?
The melting point was 326 to 330 °C.

Which melting point does the source give for `N#Cc1ncn2c1NCC=C2c1cccc(C(F)(F)F)c1` here?
The melting point was 241 to 243 °C.

For `CCOP(=O)(CC(=O)NNc1nc2ccc(C(F)(F)F)cc2n(O)c1=O)OCC`, which melting point is on record?
The melting point was 193 to 196 °C.

Which melting point does the source give for `COc1cc(C(=O)N2CCC(CCN3CCC(C(=O)c4nc5ccccc5n4Cc4ccc(F)cc4)CC3)(c3ccc(F)cc3F)C2)cc(OC)c1OC` (stereo not drawn) here?
Its melting point is 58 to 60 °C.

Which melting point does the source give for `COc1ccc(-c2cc(C(F)(F)F)nn2-c2ccc(S(N)(=O)=O)c(F)c2)cc1` here?
Its melting point is 130 to 131 °C.

Which melting point does the source give for `O=c1c2cc(Br)ccc2ncn1Cc1cccnc1` here?
The melting point was 162 to 164 °C.

For `CCCC(=O)c1c[nH]c2c(OC)cc(OC(=O)c3ccccc3)cc2c1=O`, which melting point is on record?
The melting point was 102 to 104 °C.

Which melting point does the source give for `Cc1ccc(F)cc1NC(=O)c1cc([N+](=O)[O-])ccc1NC(=O)CF` here?
Its melting point is 217 to 219 °C.

Which melting point does the source give for `Cc1ccc(C(=O)NC(NC(=S)Nc2cccnc2)C(F)(F)F)cc1` (stereo not drawn) here?
The melting point was 185 to 186 °C.

For `CCCCCCC(=N)NC(=S)Nc1ccc(Cl)cc1`, which melting point is on record?
The melting point was 112 to 113 °C.

For `CC(C)c1cc(C(C)C)c(CC(=O)O)c(-c2ccc(F)cc2)c1CO`, which melting point is on record?
Its melting point is 124 to 126 °C.

With `OC1(c2cccn2Cc2ccccc2F)CCN(Cc2ccccc2)CC1` as the molecule, how does the melting point read?
The melting point was 112 to 117 °C.

For `O=C(/C=C/c1cccc(S(=O)(=O)N2CCN(c3ncccn3)CC2)c1)NO`, which melting point is on record?
Its melting point is 200 °C.

Which melting point does the source give for `COc1cc2c(c(OC)c1OC)-c1cc3c(cc1COC2)OCO3` here?
Its melting point is 154 to 156 °C.

For `COc1ccc(-c2csc(N)n2)cc1OC`, which melting point is on record?
Its melting point is 198 to 201 °C.

Which melting point does the source give for `O=C1CNC(c2ccc(Cl)cc2)=NN1` here?
The melting point was over 260 °C.

For `CC(C#N)(COc1cc(C#N)ccc1C(F)(F)F)NC(=O)c1ccc(SC(F)(F)F)cc1` (stereo not drawn), which melting point is on record?
The melting point was 126 to 127 °C.

For `CCOCCOc1ccc(-c2ccc3c(c2)C=C(C(=O)O)CCN3S(C)(=O)=O)cc1`, which melting point is on record?
The melting point was 222 to 225 °C.

Which melting point does the source give for `Cc1cccc(Oc2cccc(Oc3ccc4c(c3)OCO4)c2C(=O)O)c1` here?
The melting point was 169 to 172 °C.

For `CS(=O)(=O)c1ccc(-c2c(-c3ccc(F)cc3)c(C(F)(F)F)nn2-c2ccccc2)cc1`, which melting point is on record?
The melting point was 202 to 203 °C.

Which melting point does the source give for `CCN1CCC2(CC1)COc1cc3c(cc12)N(C(=O)c1ccc(-c2ccc(C(=O)NNC(C)=O)cc2C)cc1)CC3` here?
The melting point was 154 to 157 °C.

For `CC(=O)N1CCc2c(N)cccc2C1`, which melting point is on record?
Its melting point is 107 to 108 °C.

For `CCOc1c(N)c2c(c(OCC)c1OCC)C(C1c3cc(OC)c(OC)cc3CCN1C)OC2=O` (stereo not drawn), which melting point is on record?
Its melting point is 143 °C.

For `CC(C)NCCCCCOc1ccc(O)cc1`, which melting point is on record?
The melting point was 95 to 99 °C.

With `O=c1[nH]nccc1-c1ccccc1OC(F)(F)C(F)F` as the molecule, how does the melting point read?
Its melting point is 178 °C.

Which melting point does the source give for `O=C1CCCC2=C1C(c1cccc(C(F)(F)F)c1)C1=C(CCCC1)N2` (stereo not drawn) here?
Its melting point is 250 to 251 °C.

With `Cc1ccc(I)cc1O` as the molecule, how does the melting point read?
The melting point was 60 °C.

With `CC(=O)OC1CCN(Cc2nc(-c3cc(C(C)(C)C)c(O)c(C(C)(C)C)c3)cs2)CC1` as the molecule, how does the melting point read?
The melting point was 160 to 161 °C.

With `O=S(=O)(Cc1n[nH]c(-c2ccccc2)n1)c1ccccc1` as the molecule, how does the melting point read?
Its melting point is 141 to 144 °C.

With `O=CN(O)C(CS(=O)(=O)c1ccc(-c2ccc(C(F)(F)F)cc2)cc1)c1cccnc1` (stereo not drawn) as the molecule, how does the melting point read?
Its melting point is 186 to 189 °C.

With `COc1cc(N2CCCC2)ccc1CN1C(=O)C(C)(c2ccccc2Cl)c2cc(Cl)ccc21` (stereo not drawn) as the molecule, how does the melting point read?
The melting point was 198 °C.

For `CCN1c2ncc(CCc3ccncc3)cc2C(=O)N(C)c2ccc(N)nc21`, which melting point is on record?
The melting point was 94 to 97 °C.

For `C[C@@H](NCCOCc1ccccc1)[C@](O)(Cn1cncn1)c1ccc(Cl)cc1Cl` (relative stereo), which melting point is on record?
The melting point was 105 to 107 °C.

Which melting point does the source give for `Nc1sc2c(c1C(=O)c1cc3ccccc3o1)CCN(Cc1ccccc1)C2` here?
The melting point was 83 to 87 °C.

For `CCOP(=O)(CCOc1ccc(C(=O)O)cc1)OCC`, which melting point is on record?
The melting point was 86 to 88 °C.

With `COC(=O)CC[C@@H](Cc1ccc(OCc2ccccc2)cc1)NC(=O)CCCCCCc1ccccc1` as the molecule, how does the melting point read?
Its melting point is 94.8 to 95.9 °C.

Which melting point does the source give for `N#Cc1c(NC(=O)c2ccccc2)ccc2ccccc12` here?
The melting point was 205 °C.

With `CS(=O)(=O)c1ccc(C[C@@H](NC(=O)OCc2ccccc2)[C@H](O)C(N)=O)cc1` as the molecule, how does the melting point read?
Its melting point is 186 to 191 °C.
